The text below walks through data of ChEMBL document CHEMBL1131608, “Structure-activity relationships and molecular modeling of 3, 5-diacyl-2,4-dialkylpyridine derivatives as selective A3 adenosine receptor antagonists” (J Med Chem, 1998).

In general, Ki refers to a measure of affinity in units of concentration, obtained from inhibition or displacement. The low end stands for higher affinity, the high end for lower affinity.

The target in experiment [1] is T1, Adenosine receptor A2a (Rattus norvegicus, UniProt P30543). Briefly: Binding affinity for adenosine A2A receptor as displacement of [3H]-CGS- 21680 from rat striatal membranes. Type of experiment: cell membranes, Membrane. For orientation: Displacement assays read how much labelled ligand stays bound in the presence of the test substance.
For experiment [2], the target named is T2, Adenosine receptor A1 (Rattus norvegicus, UniProt P25099).
T2 sequence (P25099 whole entry): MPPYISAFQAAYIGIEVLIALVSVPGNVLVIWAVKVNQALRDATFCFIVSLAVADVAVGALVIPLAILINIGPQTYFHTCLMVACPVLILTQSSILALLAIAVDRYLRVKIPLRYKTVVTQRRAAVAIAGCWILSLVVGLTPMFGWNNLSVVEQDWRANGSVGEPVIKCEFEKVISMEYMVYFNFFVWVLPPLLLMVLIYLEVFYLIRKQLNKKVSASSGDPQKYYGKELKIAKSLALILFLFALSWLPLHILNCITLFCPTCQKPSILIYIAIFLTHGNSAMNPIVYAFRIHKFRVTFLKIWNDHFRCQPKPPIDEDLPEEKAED
Briefly: Binding affinity for adenosine A1 receptor as displacement of [3H]R-PIA from rat brain membranes. It is filed as cell membranes, Membrane.

Experiment [3] concerns the target T1, Adenosine receptor A2a.
In experiment [4] the target is T2, Adenosine receptor A1. Briefly: Binding affinity for adenosine A1 receptor as displacement of [3H]R-PIA from rat brain membranes at 10e-4 M. It is filed as cell membranes, Membrane.

T1 sequence (P30543 whole entry): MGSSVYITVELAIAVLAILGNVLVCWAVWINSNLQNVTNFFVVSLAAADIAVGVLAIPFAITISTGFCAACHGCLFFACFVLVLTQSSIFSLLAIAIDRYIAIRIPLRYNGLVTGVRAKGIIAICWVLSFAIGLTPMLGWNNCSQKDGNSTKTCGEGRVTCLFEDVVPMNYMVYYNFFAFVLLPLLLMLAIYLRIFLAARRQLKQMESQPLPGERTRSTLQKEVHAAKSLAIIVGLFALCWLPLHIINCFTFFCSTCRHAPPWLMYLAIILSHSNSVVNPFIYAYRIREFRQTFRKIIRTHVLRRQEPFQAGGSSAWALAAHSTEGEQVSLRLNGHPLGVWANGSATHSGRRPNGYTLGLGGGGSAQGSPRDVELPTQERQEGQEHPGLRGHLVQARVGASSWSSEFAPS

As to `CCCO/C(O)=C1\C(C)=NC(c2ccccc2)=C(C(=O)OCC)C1C` (centres undefined), the Ki was 28.9 µM on Adenosine receptor A2a [1] and 17.4 µM on Adenosine receptor A1 [2].

In the case of `CCO/C(O)=C1\C(C)=NC(c2ccccc2)=C(C(=O)OCc2ccc([N+](=O)[O-])cc2)C1C#Cc1ccccc1` (centres undefined), the Ki on Adenosine receptor A2a [3] and on Adenosine receptor A1 [4] was more than 100 µM each time.
